Measured values: patent publication US20090197897A1, “Novel Oxadiazole Derivatives and Their Use as Positive Allosteric Modulators of Metabotropic Glutamate Receptors” (Addex Pharma SA, priority 2005, published 2009)

Tests used:
[1] = biological target: T1, rat mGluR5 (Rattus norvegicus, UniProt P31424); test: mGluR5 assay on HEK-expressing rat mGluR5 (fluorescent cell based Ca2+ mobilization assay); conditions: HEK-293 cells stably expressing rat mGluR5; no co-addition of glutamate; mean of at least three independent experiments in duplicate; read-out: Ca++ Flux (mean EC50)
T1 construct: expressed in transfected cells
Procedure, shortened: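 HEK-293 cells stably expressing rat mGluR5, Fluo-4 loaded 60 min, in HEPES buffer pH 7.4 with sulfinpyrazone; compound (0.01 to 60 μM, 0.3% DMSO) added alone, no glutamate co-addition, and Ca2+ fluorescence followed 3 min by FLIPR. Duplicate points; EC50 from four-parameter logistic fit, mean of at least three experiments.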

[2] = biological target: T2, mGluR5 (Rattus norvegicus, UniProt P31424); test: mGluR5 binding assay ([3H]-MPEP, rat brain membranes); conditions: 3 nM [3H]-MPEP, 1 h at 4° C.
T2 construct: positive allosteric modulators of mGluR5 receptors in native preparations; endogenous in cells; host or cells: primary cortical astrocytes from Sprague-Dawley rat embryos (day 16 to 19)
Excerpt: Activity of compounds of the invention was examined following a radioligand binding technique using whole rat brain and tritiated 2-methyl-6-(phenylethynyl)-pyridine ([^3H]-MPEP) as a ligand following similar methods than those described in Gasparini et al. (2002) Bioorg. Med. Chem. Lett. 12:407-409 and in Anderson et al. (2002) J. Pharmacol. Exp. Ther. 303 (3) 1044-1051.
Cortices were dissected out from brains of 200-300 g Sprague-Dawley rats (Charles River Laboratories, L'Arbresle, France). Tissues were homogenized in 10 volumes (vol/wt) of ice-cold 50 mM Hepes-NaOH (pH 7.4) using a Polytron disrupter (Kinematica AG, Luzern, Switzerland) and centrifuged for 30 min at 40,000 g. (4° C.). […] Protein concentration was determined by the Bradford method (Bio-Rad protein assay, Reinach, Switzerland) with bovine serum albumin as standard.
Membranes were thawed and resuspended in binding buffer containing 20 mM HEPES-NaOH, 3 mM MgCl2, 3 mM CaCl2, 100 mM NaCl, pH 7.4. […] Radioactivity was determined by liquid scintillation spectrometry using a 96-well plate reader (TopCount, Perkin-Elmer, Downers Grove, USA).
The inhibition curves were generated using the Prism GraphPad program (Graph Pad Software Inc, San Diego, USA). […] The mean of IC50 obtained from at least three independent experiments of selected molecules performed in duplicate were calculated.

T1 sequence (P31424 21-1171 isoform P31424-2 limits assumed): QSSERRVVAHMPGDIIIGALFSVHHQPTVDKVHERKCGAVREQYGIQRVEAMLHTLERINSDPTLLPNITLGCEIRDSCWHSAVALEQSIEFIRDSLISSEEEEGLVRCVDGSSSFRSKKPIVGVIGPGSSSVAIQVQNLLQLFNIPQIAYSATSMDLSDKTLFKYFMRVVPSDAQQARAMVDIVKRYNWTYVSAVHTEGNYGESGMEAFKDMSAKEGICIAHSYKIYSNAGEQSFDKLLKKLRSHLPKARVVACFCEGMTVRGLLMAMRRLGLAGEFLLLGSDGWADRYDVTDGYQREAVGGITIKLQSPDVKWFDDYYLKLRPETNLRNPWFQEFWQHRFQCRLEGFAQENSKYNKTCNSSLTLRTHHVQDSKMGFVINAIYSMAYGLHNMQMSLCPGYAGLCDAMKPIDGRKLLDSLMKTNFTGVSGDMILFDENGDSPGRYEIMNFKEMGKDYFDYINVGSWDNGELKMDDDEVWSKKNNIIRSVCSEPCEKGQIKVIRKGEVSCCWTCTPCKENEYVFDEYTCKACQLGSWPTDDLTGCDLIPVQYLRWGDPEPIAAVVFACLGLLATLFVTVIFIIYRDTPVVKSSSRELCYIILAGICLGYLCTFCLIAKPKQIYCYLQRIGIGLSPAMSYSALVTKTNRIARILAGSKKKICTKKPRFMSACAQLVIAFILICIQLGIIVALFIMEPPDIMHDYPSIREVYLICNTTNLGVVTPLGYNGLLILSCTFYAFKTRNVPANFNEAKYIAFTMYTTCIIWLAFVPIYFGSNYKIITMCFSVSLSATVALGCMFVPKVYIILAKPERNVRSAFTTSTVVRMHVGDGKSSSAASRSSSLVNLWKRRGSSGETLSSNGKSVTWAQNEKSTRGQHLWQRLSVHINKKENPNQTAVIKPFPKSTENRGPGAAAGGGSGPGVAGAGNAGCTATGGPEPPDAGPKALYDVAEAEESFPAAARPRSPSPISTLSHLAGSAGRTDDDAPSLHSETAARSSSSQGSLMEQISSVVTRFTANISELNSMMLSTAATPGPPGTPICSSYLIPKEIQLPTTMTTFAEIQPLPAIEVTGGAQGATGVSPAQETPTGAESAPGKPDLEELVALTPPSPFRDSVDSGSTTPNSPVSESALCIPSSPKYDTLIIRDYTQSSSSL
T2 sequence (P31424 21-1203): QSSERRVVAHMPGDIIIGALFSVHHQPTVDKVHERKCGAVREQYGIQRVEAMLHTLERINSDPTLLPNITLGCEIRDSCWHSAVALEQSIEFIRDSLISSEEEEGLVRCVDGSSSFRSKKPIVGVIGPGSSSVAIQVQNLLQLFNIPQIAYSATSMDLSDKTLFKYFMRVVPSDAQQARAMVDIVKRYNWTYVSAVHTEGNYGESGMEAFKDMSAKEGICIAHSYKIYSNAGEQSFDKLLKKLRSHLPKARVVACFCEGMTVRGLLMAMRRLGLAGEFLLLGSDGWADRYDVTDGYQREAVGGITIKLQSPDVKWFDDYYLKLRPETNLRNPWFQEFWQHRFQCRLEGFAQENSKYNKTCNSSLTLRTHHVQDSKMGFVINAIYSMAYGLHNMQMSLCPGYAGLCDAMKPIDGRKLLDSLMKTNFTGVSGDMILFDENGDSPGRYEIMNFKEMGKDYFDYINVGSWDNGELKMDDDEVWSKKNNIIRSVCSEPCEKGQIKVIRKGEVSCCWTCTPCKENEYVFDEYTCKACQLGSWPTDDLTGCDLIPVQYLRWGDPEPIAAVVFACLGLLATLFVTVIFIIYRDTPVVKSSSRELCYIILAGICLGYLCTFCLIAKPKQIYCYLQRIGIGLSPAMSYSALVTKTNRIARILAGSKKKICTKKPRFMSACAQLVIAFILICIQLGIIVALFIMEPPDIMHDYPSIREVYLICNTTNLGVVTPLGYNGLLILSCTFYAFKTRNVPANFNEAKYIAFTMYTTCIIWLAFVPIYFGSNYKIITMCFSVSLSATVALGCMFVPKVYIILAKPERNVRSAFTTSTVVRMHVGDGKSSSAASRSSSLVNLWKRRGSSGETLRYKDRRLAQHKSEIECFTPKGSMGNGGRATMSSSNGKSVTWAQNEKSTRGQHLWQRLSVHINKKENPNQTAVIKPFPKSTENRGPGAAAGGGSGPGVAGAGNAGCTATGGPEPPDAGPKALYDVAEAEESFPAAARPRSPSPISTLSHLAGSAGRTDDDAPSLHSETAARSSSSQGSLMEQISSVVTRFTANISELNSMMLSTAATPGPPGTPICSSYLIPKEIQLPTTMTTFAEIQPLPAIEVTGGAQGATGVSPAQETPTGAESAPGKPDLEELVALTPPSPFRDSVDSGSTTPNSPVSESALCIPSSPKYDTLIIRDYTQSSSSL

Q: `O=C(c1ccc(F)nc1)N1CCC[C@H](c2nc(-c3ccc(F)cc3)no2)C1` [Example 29, (S)-{3-[3-(4-Fluoro-phenyl)-[1,2,4]oxadiazol-5-yl]-piperidin-1-yl}-(6-fluoro-pyridin-3-yl)-methanone] was tested. Which EC50 [1] did it give?
A: < 1 µM

Q: And the IC50 [2]?
A: < 30 µM
